In PMC9127185, “A Pyridazinone Compound for Effectively Treating Non-alcoholic Steatohepatitis by Targeting THRβ” (Frontiers in Chemistry, 2022):
Entries after “also recorded” stand apart in the source; their conditions may differ.

Experiments:
[1] = Tissue distribution study after oral administration; type: in vivo, C57BL/6J mice; details: for Time of highest tissue level: oral
Description: The frozen mice plasma samples and tissue homogenates were thawed at room temperature, vortexed for 1 min, then taken out in 10-μl aliquots in a 1.50-ml centrifuge tube, and this was then mixed with 1 μl of standard solution and 50 μl of internal standard (IS) solution, which was then dissolved and diluted with acetonitrile. Subsequently, it was vortexed for 3 min and at 14,000 rpm centrifugation for 5 min. The adopted 1 μl of the supernatant was used for sample injection analysis.
A total of 24 male C57/BL6J mice were divided into 4 groups at random, with 6 mice in a group for tissue distribution at 0.25, 1, 6, and 24 h. They were given YWS01125 after oral administration of 20 mg/kg, and then sacrificed at 0.25, 1, 6, and 24 h. Tissues from the heart, liver, spleen, lungs, kidneys, stomach, small intestine, colon, fat, muscle, testes, and brain were taken and rinsed with saline solution to remove the blood and connective tissues ([Geng et al., 2015]; [He et al., 2017]; [Jiang et al., 2017]), then put on the filter paper and weighed, quickly. Each tissue sample was homogenized by using five times of the tissue weight saline (w/v). All homogenates were stored at−80 °C until analysis.
The tissue distributions of YWS01125 were investigated in C57BL/6J mice at 0.25, 1, 6, and 24 h after oral administration. The examined organs or tissues included the heart, liver, spleen, lungs, kidneys, stomach, small intestine, colon, fat, muscle, testes, and brain. The linear ranges, correlation coefficients, weight factors, and regression equations for all analytes in the mouse plasma and tissue homogenates are shown in Table 5. The concentration of each tissue at 0.25 h is indicated as stomach > kidneys > liver > colon > small intestine > testes > heart > spleen > lungs > fat; concentration of each tissue at 1 h is small intestine > colon > liver > stomach > kidneys > lungs > heart > fat > testes; concentration of each tissue at 6 h is small intestine > colon > stomach > liver > kidneys > heart; and concentration of each tissue at 24 h is that the whole tissues were not detected (Table 6). […] The content of the compound in the stomach was much higher than that in any other organ. The highest levels were reached 0.25 h after oral administration, then decreased thereafter. For the heart, liver, kidneys, lungs, small intestine, colon, and fat, the highest level was reached 1 h after oral administration, and it reached the highest levels at 0.25 h in the spleen, stomach, and testes.

[2] = Stability of YWS01125 in mouse plasma under storage conditions; type: in vitro ADME; details: for Accuracy (RE) after storage / Concentration found after storage, Mean ± SD: mouse plasma
Description: The validation was carried out by the US Food and Drug Administration bioanalytical method guidance ([Bioanalytical Method Validation, 2018]; [US Food and Drug Administration, 2018]; [Chen et al., 2019]), namely evaluating selectivity, linearity, accuracy and precision, recovery, matrix effect, and stability. Selectivity was assessed by contrasting the normal blank plasma samples' and analyst plasma samples' chromatograms from six different specimens. Linearity was appraised by different concentrations of the standard medicated plasma samples for 3 days continuously. The peak area was recorded ([Booth et al., 2015]), and weighted (1/x^2) least-squares analysis was used to acquire the standard curve equations. The accuracy and precision were assessed by three different (low, medium, and high) QC samples by diluting with acetonitrile; each concentration had six samples and was continuously accessed for 3 days, and the accuracy, intra-day precision, and inter-day precision were obtained. Recovery was evaluated by comparing the peak area of protein precipitated with acetonitrile first and finally using it to calculate the recovery of the analyst. The matrix effect was measured by comparing the analyst peak area with the saline solution samples and QC samples at the three concentrations. The stability was assessed by defining the three QC levels in several different storage conditions: at room temperature for 6 h, injector stability at 15 °C for a whole night, and after three freeze–thaw cycles.
This experiment investigated the stability of YWS01125 in the mouse plasma at different temperature conditions, namely the auto sampler (15°C) for 12 h of injector stability, room temperature for 6 h, and three freeze–thaw cycles. […] The measured results of YWS01125 are all within the acceptable limits during the entire process (Table 3).

THRβ = biological target: T1, THRβ (Homo sapiens, UniProt P10828); assay: Selectivity and activity for THRβ; details: in words, no data shown
T1 sequence (P10828 1-461): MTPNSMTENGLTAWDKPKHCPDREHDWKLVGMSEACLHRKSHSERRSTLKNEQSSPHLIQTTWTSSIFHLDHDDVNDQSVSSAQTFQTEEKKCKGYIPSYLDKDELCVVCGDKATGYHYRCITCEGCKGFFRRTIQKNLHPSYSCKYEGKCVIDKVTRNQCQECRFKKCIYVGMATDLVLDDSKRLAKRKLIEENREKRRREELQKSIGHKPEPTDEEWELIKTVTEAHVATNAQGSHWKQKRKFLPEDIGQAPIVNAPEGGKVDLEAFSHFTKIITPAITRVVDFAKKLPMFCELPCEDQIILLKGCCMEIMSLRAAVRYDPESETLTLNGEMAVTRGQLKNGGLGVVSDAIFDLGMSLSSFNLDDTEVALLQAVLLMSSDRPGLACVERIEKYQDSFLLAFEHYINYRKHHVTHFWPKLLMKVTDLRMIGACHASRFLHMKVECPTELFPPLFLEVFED

acute liver injury model = assay: Acute liver injury model; type: in vivo, rat; details: in words, no data shown
[3] = after oral administration, all time points
[4] = injector stability (15°C, 12 h), added 10 ng/ml
[5] = injector stability (15°C, 12 h), added 50 ng/ml
[6] = injector stability (15°C, 12 h), added 300 ng/ml
[7] = room temperature for 6 h, added 10 ng/ml
[8] = room temperature for 6 h, added 300 ng/ml
[9] = three freeze–thaw cycles, added 10 ng/ml
[10] = three freeze–thaw cycles, added 50 ng/ml
[11] = three freeze–thaw cycles, added 300 ng/ml

N#Cc1cn(-c2cc(Cl)c(Oc3cc(C4CCC4)c(=O)[nH]n3)c(Cl)c2)c(=O)[nH]c1=O [YWS01125, 1-(3,5-dichloro-4-((5-cyclobutyl-6-oxo-1,6-dihydropyridazin-3-yl)oxy)phenyl)-2,4-dioxo-1,2,3,4-tetrahydropyrimidine-5-carbonitrile]
Concentration in the brain [1, 3]: not detected
Concentration in the muscle [1, 3]: not detected
Time of highest tissue level ([1]; heart, liver, kidneys, lungs, small intestine, colon, fat): 1 h
Colon tissue concentration ([1]; oral 20 mg/kg, 15 min): 46.70 ± 2.27
Fat tissue concentration ([1]; oral 20 mg/kg, 15 min): 9.37 ± 0.88
Heart tissue concentration ([1]; oral 20 mg/kg, 15 min): 7.00 ± 1.05
Kidneys tissue concentration ([1]; oral 20 mg/kg, 15 min): 129.83 ± 18.31
Liver tissue concentration ([1]; oral 20 mg/kg, 15 min): 69.93 ± 11.25
Lungs tissue concentration ([1]; oral 20 mg/kg, 15 min): 5.51 ± 1.22
Small intestine tissue concentration ([1]; oral 20 mg/kg, 15 min): 31.30 ± 6.38
Spleen tissue concentration ([1]; oral 20 mg/kg, 15 min): 6.26 ± 0.60
Stomach tissue concentration ([1]; oral 20 mg/kg, 15 min): 378.67 ± 36.89
Testes tissue concentration ([1]; oral 20 mg/kg, 15 min): 15.37 ± 2.15
Colon tissue concentration ([1]; oral 20 mg/kg, 1 h): 357.67 ± 35.31
Fat tissue concentration ([1]; oral 20 mg/kg, 1 h): 8.69 ± 1.45
Heart tissue concentration ([1]; oral 20 mg/kg, 1 h): 14.41 ± 5.97
Kidneys tissue concentration ([1]; oral 20 mg/kg, 1 h): 230.50 ± 15.53
Liver tissue concentration ([1]; oral 20 mg/kg, 1 h): 283.67 ± 40.72
Lungs tissue concentration ([1]; oral 20 mg/kg, 1 h): 60.76 ± 4.97
Small intestine tissue concentration ([1]; oral 20 mg/kg, 1 h): 373.00 ± 33.88
Stomach tissue concentration ([1]; oral 20 mg/kg, 1 h): 247.17 ± 24.96
Testes tissue concentration ([1]; oral 20 mg/kg, 1 h): 6.08 ± 4.70
Colon tissue concentration ([1]; oral 20 mg/kg, 6 h): 60.23 ± 3.87
Heart tissue concentration ([1]; oral 20 mg/kg, 6 h): 4.01 ± 1.27
Kidneys tissue concentration ([1]; oral 20 mg/kg, 6 h): 12.73 ± 1.65
Liver tissue concentration ([1]; oral 20 mg/kg, 6 h): 16.63 ± 1.72
Small intestine tissue concentration ([1]; oral 20 mg/kg, 6 h): 61.03 ± 4.06
Stomach tissue concentration ([1]; oral 20 mg/kg, 6 h): 54.49 ± 10.20
Time of highest tissue level ([1]; spleen, stomach, testes): 0.25 h
Stability in mouse plasma (in words) ([2]; auto sampler 15°C 12 h, room temperature 6 h, three freeze–thaw cycles): maintains stability
Accuracy (RE) after storage [2, 4]: 5.00%
Concentration found after storage, Mean ± SD [2, 4]: 10.67 ± 0.52 ng/mL
Accuracy (RE) after storage [2, 5]: −4.68%
Concentration found after storage, Mean ± SD [2, 5]: 49.91 ± 2.15 ng/mL
Accuracy (RE) after storage [2, 6]: −1.60%
Concentration found after storage, Mean ± SD [2, 6]: 295.17 ± 29.36 ng/mL
Accuracy (RE) after storage [2, 7]: 1.20%
Concentration found after storage, Mean ± SD [2, 7]: 10.29 ± 0.82 ng/mL
Concentration found after storage, Mean ± SD ([2]; room temperature for 6 h, added 50 ng/ml): 52.62 ± 1.73 ng/mL
Accuracy (RE) after storage [2, 8]: 3.88%
Concentration found after storage, Mean ± SD [2, 8]: 299.33 ± 10.07 ng/mL
Accuracy (RE) after storage [2, 9]: −1.80%
Concentration found after storage, Mean ± SD [2, 9]: 9.45 ± 0.57 ng/mL
Accuracy (RE) after storage [2, 10]: −2.20%
Concentration found after storage, Mean ± SD [2, 10]: 47.80 ± 3.96 ng/mL
Accuracy (RE) after storage [2, 11]: −2.66%
Concentration found after storage, Mean ± SD [2, 11]: 289.17 ± 12.77 ng/mL
Selectivity and activity for THRβ (THRβ): excellent activity; also recorded: best selectivity and activity
Effect in acute liver injury model (acute liver injury model): hepatoprotective effect
